# Source: ChEMBL document CHEMBL5625206, “Design, synthesis, and evaluation of novel pleuromutilin aryl acrylate derivatives as promising broad-spectrum antibiotics especially for combatting multi-drug resistant gram-negative bacteria” (Eur J Med Chem, 2023)
# Active and inactive are the calls of the source. No cut-off for these calls is given here.
# Legend:
# [1] = test system: Pseudomonas aeruginosa; assay: Antibacterial activity against multidrug-resistant Pseudomonas aeruginosa 126 clinical isolate assessed as bacterial growth inhibition incubated for 24 hrs by CLSI based broth microdilution method; format: functional
# [2] = Cytotoxicity against HEK293 cells incubated for 24 hrs by CCK8 assay; format: toxicity, cell-based; details: human
# [3] = test system: Staphylococcus aureus; assay: Antibacterial activity against Staphylococcus aureus ATCC 29213 assessed as bacterial growth inhibition incubated for 24 hrs by CLSI based broth microdilution method; format: functional
# [4] = test system: Enterococcus; assay: Antibacterial activity against vancomycin-resistant Enterococcus 80 clinical isolate assessed as bacterial growth inhibition incubated for 24 hrs by CLSI based broth microdilution method; format: functional
# [5] = Cytotoxicity against human A549 cells incubated for 24 hrs by CCK8 assay; format: toxicity, cell-based
# [6] = test system: Klebsiella pneumoniae; assay: Antibacterial activity against multidrug-resistant Klebsiella pneumoniae 893 clinical isolate assessed as bacterial growth inhibition incubated for 24 hrs by CLSI based broth microdilution method; format: functional
# [7] = test system: Staphylococcus aureus; assay: Antibacterial activity against Staphylococcus aureus ATCC 25923 assessed as bacterial growth inhibition incubated for 24 hrs by CLSI based broth microdilution method; format: functional
# [8] = test system: Staphylococcus aureus; assay: Antibacterial activity against methicillin-resistant Staphylococcus aureus 171 clinical isolate assessed as bacterial growth inhibition incubated for 24 hrs by CLSI based broth microdilution method; format: functional
# [9] = test system: Acinetobacter baumannii; assay: Antibacterial activity against carbapenem-resistant Acinetobacter baumannii 882 clinical isolate assessed as bacterial growth inhibition incubated for 24 hrs by CLSI based broth microdilution method; format: functional
# [10] = test system: Staphylococcus epidermidis; assay: Antibacterial activity against Staphylococcus epidermidis ATCC 12228 assessed as bacterial growth inhibition incubated for 24 hrs by CLSI based broth microdilution method; format: functional
# [11] = Cytotoxicity against human HepG2 cells incubated for 24 hrs by CCK8 assay; format: toxicity, cell-based
# [12] = test system: Escherichia coli; assay: Antibacterial activity against Escherichia coli ATCC 25922 assessed as bacterial growth inhibition incubated for 24 hrs by CLSI based broth microdilution method; format: functional
# [13] = test system: Acinetobacter baumannii; assay: Antibacterial activity against Acinetobacter baumannii ATCC 19606 assessed as bacterial growth inhibition incubated for 24 hrs by CLSI based broth microdilution method; format: functional
# [14] = test system: Staphylococcus aureus; assay: Antibacterial activity against methicillin-resistant Staphylococcus aureus 575 clinical isolate assessed as bacterial growth inhibition incubated for 24 hrs by CLSI based broth microdilution method; format: functional
# [15] = test system: Staphylococcus aureus; assay: Antibacterial activity against methicillin-resistant Staphylococcus aureus ATCC 33591 assessed as bacterial growth inhibition incubated for 24 hrs by CLSI based broth microdilution method; format: functional
# [16] = test system: Mycoplasmoides gallisepticum; assay: Anti-mycoplasma activity against Mycoplasma gallisepticum MG-R-NCTC10115 assessed as bacterial growth inhibition incubated for 7 days; format: functional; details: MG-R-NCTC10115, 168 h, time 7 day
# [17] = Toxicity in neutropenic Kunming mouse model infected with methicillin-resistant Staphylococcus aureus ATCC 33591 assessed as survival rate at 20 mg/kg, ip measured after 7 days relative to control; format: organism-based; details: in vivo, 168 h, time 7 day
# [18] = test system: Mesomycoplasma hyopneumoniae; assay: Anti-mycoplasma activity against Mycoplasma hyopneumoniae J-NCYC10110 assessed as bacterial growth inhibition incubated for 7 days; format: functional; details: J-NCYC10110, 168 h, time 7 day
# [19] = Toxicity in neutropenic Kunming mouse model infected with methicillin-resistant Staphylococcus aureus ATCC 33591 assessed as survival rate at 10 mg/kg, ip measured after 7 days relative to control; format: organism-based; details: in vivo, 168 h, time 7 day
# [20] = test system: Staphylococcus aureus; assay: Antibacterial activity against methicillin-resistant Staphylococcus aureus ATCC 33591 infected in neutropenic Kunming mouse model assessed as bacterial load reduction in lung at 10 to 20 mg/kg, ip measured after 2 days; format: functional, organism-based; details: dose 10-20 mg/kg, time 2.0 day
# [21] = test system: Mycoplasmopsis synoviae; assay: Anti-mycoplasma activity against Mycoplasmopsis synoviae MS-MVU1852-NCTC10124 assessed as bacterial growth inhibition incubated for 7 days; format: functional; details: MS-MVU1852-NCTC10124, 168 h, time 7 day
# [22] = test system: Staphylococcus aureus; assay: Antibacterial activity against methicillin-resistant Staphylococcus aureus ATCC 33591 infected in neutropenic Kunming mouse model administered intraperitoneally measured after 7 days; format: functional; details: ATCC 33591, 168 h, route ip, time 7 day
# [23] = test system: Staphylococcus aureus; assay: Antibacterial activity against methicillin-resistant Staphylococcus aureus ATCC 33591 infected in neutropenic Kunming mouse model assessed as bacterial load reduction in kidney at 10 to 20 mg/kg, ip measured after 2 days; format: functional, organism-based; details: dose 10-20 mg/kg, time 2.0 day
# [24] = test system: Mesomycoplasma hyorhinis; assay: Anti-mycoplasma activity against Mycoplasma hyorhinis BTS-7-NCTC10130 assessed as bacterial growth inhibition incubated for 7 days; format: functional; details: BTS-7-NCTC10130, 168 h, time 7 day
# [25] = test system: Mesomycoplasma hyopneumoniae; assay: Anti-mycoplasma activity against Mycoplasma hyopneumoniae LH-NCTC10130 assessed as bacterial growth inhibition incubated for 7 days; format: functional; details: time 7 day
# [26] = test system: Staphylococcus aureus; assay: Antibacterial activity against methicillin-resistant Staphylococcus aureus ATCC 33591 infected in neutropenic Kunming mouse model assessed as bacterial load reduction in liver at 10 to 20 mg/kg, ip measured after 2 days; format: functional, organism-based; details: dose 10-20 mg/kg, time 2.0 day
# [27] = Toxicity in neutropenic Kunming mouse model infected with methicillin-resistant Staphylococcus aureus ATCC 33591 assessed as survival rate at 5 mg/kg, ip measured after 7 days relative to control; format: organism-based; details: in vivo, 168 h, time 7 day
# [28] = test system: Staphylococcus aureus; assay: Antibacterial activity against methicillin-resistant Staphylococcus aureus ATCC 33591 infected in neutropenic Kunming mouse model assessed as reduction in infection-induced inflammatory cell inflammation in lung at 10 mg/kg, ip measured after 7 days; format: functional, organism-based; details: time 7.0 day
# [29] = test system: Staphylococcus aureus; assay: Antibacterial activity against methicillin-resistant Staphylococcus aureus ATCC 33591 infected in neutropenic Kunming mouse model assessed as reduction in infection-induced inflammatory cell inflammation in liver at 10 mg/kg, ip measured after 7 days; format: functional, organism-based; details: time 7.0 day
# [30] = test system: Staphylococcus aureus; assay: Antibacterial activity against methicillin-resistant Staphylococcus aureus ATCC 33591 infected in neutropenic Kunming mouse model assessed as reduction in infection-induced inflammatory cell inflammation in kidney at 10 mg/kg, ip measured after 7 days; format: functional, organism-based; details: time 7.0 day
# [31] = test system: Staphylococcus aureus; assay: Bactericidal activity against methicillin-resistant Staphylococcus aureus ATCC 33591 at MIC incubated for 24 hrs by time kill assay relative to control; format: functional
# [32] = test system: Staphylococcus aureus; assay: Bactericidal activity against methicillin-resistant Staphylococcus aureus ATCC 33591 at 2 to 4 times MIC incubated for 24 hrs by time kill assay relative to control; format: functional
SMILES,MIC [1] [µg/mL],CC50 at 24 h [2] [µM],MIC [3] [µg/mL],MIC [4] [µg/mL],CC50 at 24 h [5] [µM],MIC [6] [µg/mL],MIC [7] [µg/mL],MIC [8] [µg/mL],MIC [9] [µg/mL],MIC [10] [µg/mL],CC50 at 24 h [11] [µM],MIC [12] [µg/mL],MIC [13] [µg/mL],MIC [14] [µg/mL],MIC [15] [µg/mL],further results
C=C[C@]1(C)C[C@@H](OC(=O)COC(=O)/C=C/c2cccnc2)[C@]2(C)[C@H](C)CC[C@]3(CCC(=O)[C@H]32)[C@@H](C)[C@@H]1O,16,28.6,8,32,63.4,64,2,32,> 128,2,80.6,16,32,64,16,
C=C[C@]1(C)C[C@@H](OC(=O)COC(=O)/C=C/c2cccc(C#N)c2)[C@]2(C)[C@H](C)CC[C@]3(CCC(=O)[C@H]32)[C@@H](C)[C@@H]1O,128,29.2,8,16,> 200,128,2,32,> 128,2,78.5,64,128,64,16,
C=C[C@]1(C)C[C@@H](OC(=O)CSC(C)(C)CNC(=O)[C@H](N)C(C)C)[C@]2(C)[C@H](C)CC[C@]3(CCC(=O)[C@H]32)[C@@H](C)[C@@H]1O [VALNEMULIN],64,31.1,2,128,46.2,128,4,128,64,64,37.3,2,2,128,> 128,MIC [16]: 0.001 µg/mL; Survival [17]: 70%; MIC [18]: 0.001 µg/mL; Survival [19]: 40%; Activity [20]: Active; MIC [21]: 0.015 µg/mL; ED50 [22]: 14 mg/kg; Activity [23]: Active; MIC [24]: 0.001 µg/mL; MIC [25]: 0.3 10^-4 ug/ml; Activity [26]: Active; Survival [27]: 20%; Activity [28]: inactive; Activity [29]: inactive; Activity [30]: inactive
C=C[C@]1(C)C[C@@H](OC(=O)COC(=O)/C=C/c2ccc([N+](=O)[O-])cc2)[C@]2(C)[C@H](C)CC[C@]3(CCC(=O)[C@H]32)[C@@H](C)[C@@H]1O,64,> 200,2,8,> 200,128,8,16,128,2,> 200,32,64,16,4,
C=C[C@]1(C)C[C@@H](OC(=O)CSCCN(CC)CC)[C@]2(C)[C@H](C)CC[C@]3(CCC(=O)[C@H]32)[C@@H](C)[C@@H]1O [TIAMULIN],,,> 128,,,,64,,,16,,64,64,,128,"MIC [16]: 0.125 µg/mL; MIC [18]: 0.03 µg/mL; MIC [21]: 2 µg/mL; MIC [24]: 0.03 µg/mL; MIC ([25]; Mesomycoplasma hyopneumoniae, LH-NCTC10130, 168 h, read-out: MIC): 0.015 µg/mL"
C=C[C@]1(C)C[C@@H](OC(=O)CS[C@@H]2C[C@H]3CC[C@@H](C2)N3C)[C@]2(C)[C@H](C)CC[C@]3(CCC(=O)[C@H]32)[C@@H](C)[C@@H]1O [RETAPAMULIN],128,62.9,4,> 128,74.2,64,4,128,64,32,36.5,16,16,64,32,Activity [31]: 44.49%; Activity [32]: 100%
C=C[C@]1(C)C[C@@H](OC(=O)COC(=O)/C(C#N)=C/c2ccccc2)[C@]2(C)[C@H](C)CC[C@]3(CCC(=O)[C@H]32)[C@@H](C)[C@@H]1O,64,> 200,8,8,> 200,32,4,64,8,8,> 200,8,4,> 128,32,
